The results in this text go back to article PMC10054362, “Anti–Zika Virus Activity and Isolation of Flavonoids from Ethanol Extracts of Curatella americana L. Leaves” (Molecules, 2023).

≈ marks a conversion by molar mass, not a printed value. Where “and” joins values, the source holds several entries; their conditions need not be identical. Identical values can stand only once. Like-named read-outs stand apart in the source and are kept apart here. Bounds are passed on as bounds.

Data set [1] in a line: Cytotoxicity evaluation by MTT assay in MRC-5 cells. In kind it is cell-based, human. Conditions: human. The method, then: (§1) The cytotoxicity of ethanolic extracts of stems, leaves, fractions, and substances isolated from the C. americana species was evaluated by the colorimetric MTT method in Vero cell lines (derived from African green monkey kidneys) and MRC-5 (derived from normal human lung tissue). The results of CC50 are described in Table 2.
(§2) Cell suspensions (Vero and MRC-5) were distributed in 96-well microplates containing 6.0 × 10^4 cells/well. The plates were incubated in a humidified 5% CO2 atmosphere at 37 °C for 24 h. Samples solubilized in dimethyl sulfoxide (DMSO) were diluted in culture medium supplemented with 1% SFB [48, 49]. Substance dilutions ranged from 800 to 0.125 µg/mL. After the formation of the cell monolayer on the surface of the wells, the culture medium was removed, and 100 μL of diluted sample solutions along with 100 μL of 1% SFB-enriched culture medium were added, and the plates were incubated under the same atmospheric condition. Seventy-two hours after the addition of samples, the culture medium was removed, and 28.0 μL of MTT solution (2.0 mg/mL in PBS) was added to each well, and the plates were incubated again for 120 min. At the end of this period, 132 μL of DMSO was added to all wells, and the plates were shaken on a plate shaker for 15 min to dissolve the formed formazan. Formazan quantification obtained by reducing tetrazolium salt in viable cells was performed on a Victor^TM X3 microplate reader® (PerkinElmer, Waltham, MA, USA) using the WorkOut 2.5 software at 490 nm. Cell multiplication was compared with cell control. Cell toxicity was expressed in terms of 50% cytotoxic concentration (CC50). The cytotoxic percentage was calculated as [(A-B)/A] × 100, where A and B are the optical densities at 490 nm (OD490) from the wells where untreated (A) and treated (B) cells are present, respectively.
(§3) Data from cytotoxicity and antiviral assays were evaluated according to their means and standard deviations. The cytotoxic concentration at 50% and the effective concentration at 50% were determined compared with the control obtained from nonlinear regression. […]
(Formazan colour is commonly taken as a measure of viable cells.)

Data set [2] relates to Zika virus. The data set is described as follows: Screening for anti-Zika virus activity by MTT colorimetric technique in infected Vero cells. It is filed as cell-based. Particulars: for EC50: ZIKV-infected Vero cells, MTT; for SI Vero: ratio of CC50 (Vero) to EC50. The method, then: After the determination of optimal noncytotoxic use concentrations, assays were performed, treating ZIKV-infected Vero cells with eight concentrations from the noncytotoxic concentrations for each sample. The results of the 50% effective concentration (EC50—concentration of the substance capable of reducing the viral cytopathic effect by 50%) and selectivity index (SI) are described in Table 2.
It was performed according to the methodology described by Brandão et al.. Sample stock solutions were prepared in DMSO (dimethyl sulfoxide) and evaluated at noncytotoxic concentrations. Vero cell monolayers were cultured in 96-well plates (6 × 10^4 cells per well). After 24 h of incubation in 5% CO2 at 37 °C, the culture medium (DMEM 5% SFB) was removed, and 100.0 μL of sample dilutions were added to each well along with 100.0 μL of the viral suspension. Then, the cultures were incubated in a humid atmosphere containing 5% CO2 at 37 °C for 72 h. Cell viability was assessed by the MTT colorimetric technique. The supernatant was removed, and then 28.0 μL of an MTT solution (2.0 mg/mL in PBS) was added to each well. The plates were incubated for 2 h at 37 °C, and after this incubation time, 132.0 μL DMSO was added to each well to dissolve the formazan crystals. The plates were stirred for 15 min (Shaker New Brunswick Scientific C24), and the optical density was determined at 490 nm (OD490) in a microplate reader.
The effective concentration that has 50% antiviral effect, or 50% effective concentration (EC50), is expressed as the concentration that promotes the protection of 50% of treated cells from destruction caused by the virus. The percentage of protection was calculated as [(AB)/CB)] × 100, where A, B, and C are the OD490 of the wells, in which are present treated and infected (A), untreated and infected (B), and untreated and non-infected cells (C), respectively.
Data from cytotoxicity and antiviral assays were evaluated according to their means and standard deviations. The cytotoxic concentration at 50% and the effective concentration at 50% were determined compared with the control obtained from nonlinear regression. These analyses were performed using the GraphPad Prism 5.04 statistical package® (GraphPad Software, Boston, MA, USA).

Data set [3] is described as follows: Cytotoxicity evaluation by MTT assay in Vero cells. In kind it is cell-based, African green monkey. Particulars: African green monkey. The method, then: (§4) The cytotoxicity of ethanolic extracts of stems, leaves, fractions, and substances isolated from the C. americana species was evaluated by the colorimetric MTT method in Vero cell lines (derived from African green monkey kidneys) and MRC-5 (derived from normal human lung tissue).
as §2
(§5) Data from cytotoxicity and antiviral assays were evaluated according to their means and standard deviations. […] These analyses were performed using the GraphPad Prism 5.04 statistical package® (GraphPad Software, Boston, MA, USA).

In data set [4] the test system is Zika virus. The data set is described as follows: In vitro cytopathic effect inhibition assay in ZIKV-infected Vero cell monolayer. In kind it is cell-based. Conditions: Vero cells, MOI = 1, treated after infection, quercetin 20 µg/mL, leaf extract 85 µg/mL, photographed after 48 h. The method, then: This can be seen by the destruction and morphological alterations of the cells, such as rounding of cells, formation of lumps, and changes in cell refringence, especially when compared with the uninfected and untreated cell monolayer (Figure 4A).
Figure 4 Antiviral effect against Zika virus in Vero cells treated with ethanol extract of leaves and quercetin. Vero cells were infected with ZIKV, treated with ethanol extract of leaves/quercetin, and photographed after 48 h of infection. (A) Uninfected and untreated cells, (B) infected cells, (C) cells uninfected and treated with ethanol extract of leaves (85 µg/mL), (D) cells infected and treated with ethanol extract of leaves (85 µg/mL), (E) cells uninfected and treated with quercetin (20 µg/mL), (F) cells infected and treated with quercetin (20 µg/mL). Magnification, 100x.
In order to confirm the anti-ZIKV activity observed in the antiviral MTT assay, the Vero cell monolayer (9.5 × 10^6 cells per well) was infected by viral suspensions with titers of 1.0 × 10^7 TCID50/mL, (MOI = 1), Zika virus, during 1 h for the viral adsorption. Afterwards, the viral suspension was removed and the wells were washed with PBS. Then, the wells were treated with the active concentration of the compound (20 μg/mL) and ethanolic extract of leaves of C. americana (85 μg/mL). […]
In general terms: Cytopathic effects are the visible damage that an infection or toxin causes in cultured cells.

Another data set has as its system MRC-5 cells. Kind of data set: Cytotoxicity evaluation by MTT assay in MRC-5 cells. In kind it is cell-based, human. Particulars: MTT, 72 h, n = 3. The method, then:
as §1, §2, §3

The test system of a further data set is Vero cells. Kind of data set: Cytotoxicity evaluation by MTT assay in Vero cells. It is filed as cell-based, African green monkey. Particulars: MTT, 72 h, n = 3. The method, then: as §4, §2, §5
Setting [5] is: Zika virus, 72 h, n = 3, read-out: EC50 (converted).

Broadly, the CC50 is the concentration giving 50% cytotoxicity. In general, EC50 refers to the midpoint of the concentration-response curve. On to `O=c1c(O[C@@H]2O[C@H](CO)[C@@H](O)[C@H](O)[C@H]2O)c(-c2ccc(O)c(O)c2)oc2cc(O)cc(O)c12` [Quercetin-3-O-glucoside], for which the CC50 at 72 h in data set [1] was > 100 µg/mL and > 216 µM; in data set [3] it was > 100 µg/mL and > 216 µM. In addition, the EC50 entry in the data set with Zika virus [2] (72 h, n = 3) is “Inactive”; in the data set on Zika virus [2] (setting [5]), more than 100 µg/mL.
`O=c1c(O)c(-c2ccc(O)c(O)c2)oc2cc(O)cc(O)c12` [Quercetin]: the “protection of ZIKV-infected cell monolayer from viral cytopathic effect” value in the data set with Zika virus [4] is on record as “protect the cells from a virus infection”. Besides, the EC50 was 18.6 µg/mL and 61.6 µM in the data set with Zika virus [2] (setting [5]); 18.6 ± 2.8 µg/mL (≈ 61.5 µM) with Zika virus [2] (Zika virus, read-out: EC50, inhibition of the viral cytopathic effect (abstract, unit inferred)). The “SI Vero” value in the data set with Zika virus [2] was 3.8. Also, the CC50 at 72 h in data set [3] (MTT, 72 h, n = 3, read-out: CC50 Vero (converted)) is 71.3 µg/mL and 236 µM.
Take `NC(=O)c1ncn([C@@H]2O[C@H](CO)[C@@H](O)[C@H]2O)n1` [Ribavirin, reference compound]: the EC50 with Zika virus [2] (setting [5]) was 94.5 µg/mL and 387 µM. Moreover, the CC50 at 72 h in data set [3] (Vero cells, MTT, 72 h, n = 3, read-out: CC50 Vero (converted)) was 370.4 ± 1.2 µg/mL (≈ 1520 µM).
For Quercetin-3-O-hexosylgallate, in the data set on MRC-5 cells, the CC50 is more than 162 µM and the “CC50 MRC-5” value is more than 100 µg/mL. For the same compound, the “SI MRC-5” value in the data set on Zika virus [2] (ratio of CC50 (MRC-5) to EC50) was more than 0.7. For the same compound, the “SI Vero” value with Zika virus [2] came out at 2.0. Besides, in the data set on Vero cells, the cytotoxic concentration (CC50) is 496 µM and the “CC50 Vero” value is 305.6 ± 1.4 µg/mL.
